Experimental data from ChEMBL document CHEMBL1151497, “Design, synthesis and antiproliferative activity of methyl 4-Iodo-1--D-ribofuranosyl-pyrazole-3-carboxylate and related compounds” (Bioorg Med Chem Lett, 1996).

Tests used:
Type in all cases: functional, cell-based
ACHN = assay: Compound was tested for its effect on the proliferation of ACHN human kidney adenocarcinoma
CHO-K1 = assay: Compound was tested for its effect on the proliferation of CHO-K1 Chinese hamster ovary cell line.; conditions: Cricetulus griseus
CCRF-SB = assay: Compound was tested for its effect on the proliferation of CCRF-SB human lymphoblastic B-leukemia cell line.
CCRF-CEM [1] = assay: Compound was tested for its effect on the proliferation of CCRF-CEM human lymphoblastic T-leukemia cell line
HT-29 = assay: Compound was tested for its effect on the proliferation of HT-29 human colon adenocarcinoma.
HEL 299 = assay: Compound was tested for its effect on the proliferation of […] human diploid embryonal lung cell line.
MT4 [2] = assay: Compound was tested for its effect on the proliferation of MT-4 cells expressing the TAT gene of HTLV-1.; conditions: Homo sapiens
L1210 = assay: Compound was tested for its effect on the proliferation of L1210 murine leukemia cell line.; conditions: Mus musculus
MOLT-4 = assay: Compound was tested for its effect on the proliferation of MOLT-4 human lymphoblastic T-leukemia cell line.
Raji = assay: Compound was tested for its effect on the proliferation of RAJI burkitt lymphoma cell line.; conditions: Homo sapiens
WIL2-NS = assay: Compound was tested for its effect on the proliferation of WIL-2-NS cell line.; conditions: Homo sapiens
C8166 = assay: Compound was tested for its effect on the proliferation of C8166 cells expressing the TAT gene of HTLV-1.; conditions: Homo sapiens
MT4 [3] = assay: Dose required to achieve 50% protection of MT-4 cells against the cytopathic effect of HIV-1; conditions: Homo sapiens
CCRF-CEM [4] = assay: Compound was tested for its effect on the proliferation of CCRF-CEM human lymphoblastic T-leukemia cell line.

Row | SMILES | IC50 (ACHN) | IC50 (CHO-K1) | IC50 (CCRF-SB) | IC50 (CCRF-CEM [1]) | IC50 (HT-29) | IC50 (HEL 299) | IC50 (MT4 [2]) | IC50 (L1210) | IC50 (MOLT-4) | IC50 (Raji) | IC50 (WIL2-NS) | IC50 (C8166) | EC50 (MT4 [3]) | IC50 (CCRF-CEM [4])
1 | COC(=O)c1csc([C@@H]2O[C@H](CO)[C@@H](O)[C@H]2O)n1 | > 300 µM | > 300 µM | > 300 µM | > 300 µM | > 300 µM | > 300 µM | > 300 µM | > 300 µM | > 300 µM | > 300 µM | > 300 µM |  |  | 
2 | COC(=O)c1ncn([C@@H]2O[C@H](CO)[C@@H](O)[C@H]2O)n1 | > 300 µM | > 300 µM | > 300 µM | > 300 µM | > 300 µM | > 300 µM | > 300 µM | > 300 µM | > 300 µM | > 300 µM | > 300 µM |  |  | 
3 | Cc1noc(-c2nn([C@@H]3O[C@H](CO)[C@@H](O)[C@H]3O)cc2I)n1 | 6.2 µM | 8.5 µM | 2.8 µM | 2.6 µM | 4.8 µM | 7.9 µM | 2.3 µM |  | 3 µM |  | 3.5 µM |  |  | 
4 | CCCCOC(=O)c1nn([C@@H]2O[C@H](CO)[C@@H](O)[C@H]2O)cc1I |  | 37 µM | 21 µM | 19 µM | 25 µM | 40 µM | 25 µM |  | 16 µM | 17 µM | 23 µM | 15 µM |  | 
5 | O=C(O)c1nn([C@@H]2O[C@H](CO)[C@@H](O)[C@H]2O)cc1I | > 300 µM | > 300 µM | > 300 µM | > 300 µM | > 300 µM | > 300 µM | > 300 µM | > 300 µM | > 300 µM | > 300 µM | > 300 µM | > 300 µM |  | 
6 | COC(=O)c1nn([C@@H]2O[C@H](CO)[C@@H](O)[C@H]2O)cc1I | 3.6 µM | 7.9 µM | 0.9 µM | 1.5 µM | 2.8 µM | 4 µM | 1.6 µM | 2.4 µM | 0.9 µM | 0.2 µM | 1.6 µM | 0.2 µM |  | 
7 | COC(=O)c1nn([C@@H]2O[C@H](CO)[C@@H](O)[C@H]2O)cc1I.Cc1cn([C@H]2C[C@H](N=[N+]=[N-])[C@@H](CO)O2)c(=O)[nH]c1=O |  |  |  |  |  |  |  |  |  |  |  |  | 0.005 µM | 
8 | COC(=O)c1nn([C@@H]2O[C@H](CO)[C@@H](O)[C@H]2O)cc1I.OC[C@@H]1CC[C@H](n2cnc3c(O)ncnc32)O1 |  |  |  |  |  |  |  |  |  |  |  |  | 3 µM | 
9 | C#Cc1cn([C@@H]2O[C@H](CO)[C@@H](O)[C@H]2O)nc1C(N)=O | 287 µM | > 300 µM | > 300 µM | > 300 µM | > 300 µM | 235 µM | > 300 µM | > 300 µM | > 300 µM | > 300 µM | > 300 µM | 22 µM |  | 
10 | NC(=O)c1nn([C@@H]2O[C@H](CO)[C@@H](O)[C@H]2O)cc1I | > 300 µM | > 300 µM | > 300 µM |  | > 300 µM | > 300 µM | 2.1 µM | > 300 µM | 9.1 µM | > 300 µM | > 300 µM | 4 µM |  | 2.4 µM
11 | COc1cccc2c1C(=O)c1c(O)c3c(c(O)c1C2=O)C[C@@](O)(C(=O)CO)C[C@@H]3O[C@H]1C[C@H](N)[C@H](O)[C@H](C)O1 [DOXORUBICIN] | 0.7 µM | 1.2 µM | 0.05 µM | 0.08 µM | 1.1 µM | 1.7 µM | 0.05 µM | 0.9 µM | 0.05 µM | 0.1 µM | 0.2 µM | 0.05 µM |  | 
12 | NC(=O)c1ncn([C@@H]2O[C@H](CO)[C@@H](O)[C@H]2O)n1 [RIBAVIRIN] | > 100 µM | 50 µM | > 100 µM | 19 µM |  | 45 µM | 23 µM | 16.6 µM | 5.7 µM | 56 µM | > 100 µM | > 100 µM |  | 
13 | Cc1cn([C@H]2C[C@H](N=[N+]=[N-])[C@@H](CO)O2)c(=O)[nH]c1=O [ZIDOVUDINE] |  |  |  |  |  |  |  |  |  |  |  |  | 0.002 µM | 
